From ChEMBL document CHEMBL2150934, “Identification of a potent and metabolically stable series of fluorinated diphenylpyridylethanamine-based cholesteryl ester transfer protein inhibitors” (Bioorg Med Chem Lett, 2012)

What was measured:
Type in all cases: ADME, organism-based
[1] = Plasma concentration in transgenic mouse expressing human CETP/apoB100 at 30 mg/kg, po at 8 hrs; set-up: dose 30 mg/kg, route oral
[2] = AUC (0 to 8 hrs) in transgenic mouse expressing human CETP/apoB100 at 30 mg/kg, po; set-up: time < 8 hr, dose 30 mg/kg, route oral; conditions: plasma
[3] = Plasma concentration in transgenic mouse expressing human CETP/apoB100 at 30 mg/kg, po at 2 hrs; set-up: dose 30 mg/kg, route oral
[4] = Plasma concentration in transgenic mouse expressing human CETP/apoB100 at 30 mg/kg, po at 4 hrs; set-up: dose 30 mg/kg, route oral

concentration at 8 h [1]: 112 nM
AUC(0-t) at 8 h [2]: 3.2 µM·h
concentration at 2 h [3]: 1070 nM
concentration at 4 h [4]: 249 nM
SMILES: O=C(N[C@@H]1CCC(F)(F)C1)N[C@@](Cc1ccccc1)(c1cc(F)cc(OC(F)(F)C(F)F)c1)c1ccc(Cl)cn1
